Assays:
iRC9 = target: T1, iRC9 (Homo sapiens, UniProt P42345+P62942); test: Incucyte/casp3/7 and SEAP assays in transfected 293 cells (FIG. 107); type: cell-based
T1 construct: expressed in transfected cells; host or cells: 293 cells
Procedure: FIG. 107. […] 293 cells were seeded at 300,000 cells/well in a 6-well plate and allowed to grow for 2 days. After 48 h, cells were transfected with 1 μg of experimental plasmids. Cells were harvested 48 h after transfection and diluted 2.5× their original volume.

transduced T cells = test: T cell caspase assay (IncuCyte, caspase 3/7 green reagent); type: cell-based, human
Procedure: To enable detection of apoptosis using the IncuCyte instrument, 2 μM of IncuCyte™ Kinetic Caspase-3/7 Apoptosis reagent (Essen Bioscience, 4440) were add to each well to reach a total volume of 200 μl. The plates were centrifuged for 5 min at 400×g and placed inside the IncuCyte (Dual Color Model 4459) to monitor green fluorescence every 2-3 hours for a total of 48 hours at 10× objective. Image analysis was performed using the “Tcells_caspreagent_phase_green_10×_MLD” processing definition. The “Total Green Object Integrated Intensity” metric is used to quantify caspase activation. Each condition was performed in duplicates and each well was imaged at 4 different locations.
To enable detection of apoptosis using the IncuCyte instrument, 2 μM of IncuCyte™ Kinetic Caspase-3/7 Apoptosis reagent (Essen Bioscience, 4440) was added to each well to reach a total volume of 200 μl. The plates were centrifuged for 5 min at 400×g and placed inside the IncuCyte (Dual Color Model 4459) to monitor green fluorescence every 2-3 hours for a total of 48 hours at 10× objective. Image analysis was performed using the “Tcells_caspreagent_phase_green_10×_MLD” processing definition. The “Total Green Object Integrated Intensity” metric and the “Phase Object Confluence (Percent)” were used to quantify caspase activation. Each condition was performed in duplicate and each well was imaged at 4 different locations.

[1] = tested on: SLL-peptide pulsed T2 cells; test: IL-2 secretion of iMC-PRAME TCR T cells with SLL-peptide pulsed T2 cells; type: cell-based; details: FIG. 117D

T1 sequence (P42345 2025-2113): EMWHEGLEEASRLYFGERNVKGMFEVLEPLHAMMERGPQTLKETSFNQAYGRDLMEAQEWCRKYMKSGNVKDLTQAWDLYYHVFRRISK
T1 sequence (P62942 2-107): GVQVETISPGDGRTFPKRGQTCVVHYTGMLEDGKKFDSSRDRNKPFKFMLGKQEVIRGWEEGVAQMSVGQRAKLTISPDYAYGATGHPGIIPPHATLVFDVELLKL
T1 sequence (P55211 135-416 partner limits assumed): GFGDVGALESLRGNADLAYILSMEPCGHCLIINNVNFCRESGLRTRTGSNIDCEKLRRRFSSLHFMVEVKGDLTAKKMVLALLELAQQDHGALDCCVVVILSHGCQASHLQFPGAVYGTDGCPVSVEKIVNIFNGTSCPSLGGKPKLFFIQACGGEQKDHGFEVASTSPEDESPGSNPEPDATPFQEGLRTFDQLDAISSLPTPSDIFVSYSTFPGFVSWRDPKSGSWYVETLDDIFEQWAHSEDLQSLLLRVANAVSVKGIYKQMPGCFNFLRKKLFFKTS

CC[C@H](C(=O)N1CCCC[C@H]1C(=O)O[C@H](CCc1ccc(OC)c(OC)c1)c1cccc(OCC(=O)NCCNC(=O)COc2cccc([C@@H](CCc3ccc(OC)c(OC)c3)OC(=O)[C@@H]3CCCCN3C(=O)[C@@H](CC)c3cc(OC)c(OC)c(OC)c3)c2)c1)c1cc(OC)c(OC)c(OC)c1 [rimiducid]
rimiducid concentration required to activate iRC9 (iRC9): > 100 nM | dimerization/activation of FKBP.FRB.Δcasp9 (iRC9) (transduced T cells; 20 nM rimiducid): unable to induce dimerization | concentration at which iC9 was observed to be activated (transduced T cells; MC-Rap + CAR + iC9 constructs): < 100 µM | IL-2 secretion, PRAME TCR with iMC [1]: maximal IL-2 secretion
